Test system: adult pollen beetles with resistance against pyrethroids
Test: Field trial on a commercial oilseed rape field: spray treatment, count of living adult pollen beetles
Assay type: in vivo, Meligethes aeneus
Experimental: Experiments were carried out on a commercial oilseed rape field location previously confirmed to have adult pollen beetles with resistance against pyrethroids. The experiments were carried out according the GEP settings for field trial set up and corresponding assessment of the treatments. The lay-out was a standard randomized block de-sign with 4 replicates. The different treatments (see Table 1 below) were prepared by diluting the respective products in water by well homogenized standard stirring in order to spray the four replicates at a spray volume of 300 to 400 liter per ha. The products used were the commercial formulation Fastac® OESC (containing 100 g per liter alpha-cypermethrin) and an experimental liquid formulation (containing 303.5 g PBO on a weight per weight basis). The three combinations of Fastac® OESC and the PBO containing liquid formulation in the Table 1 below were made as a tank mix of a standard rate of Fastac® OESC and a varying rate for the PBO containing formulation. The treatments were sprayed on the plants and the adult pollen beetles present on the plant by means of a knapsack sprayer at standard air pressure. The treatments were applied shortly after each other by appropriate rinsing in between according the GEP standard procedure. The development growth stage of the oilseed rape according to the BBCH code at the time of the treatment was 50 to 59 (the abbreviation “BBCH” stands for the Biologische Bundesanstalt, Bundessortenamt and Chemische Industrie). Shortly before the treatment the present adult pollen beetles were assessed in counting the number of adult pollen beetles present on 50 inflorescences—randomly taken—in each of the replicates. The total number of adult pollen beetles on the 4 replicates was then divided by 4 to give the average number of living adult pollen beetles per 50 inflorescenses, mentioned in the Table 1 below. The same procedure was followed respectively 3 and 6 days after the treatment (DAT).

CC1(C)C(C=C(Cl)Cl)C1C(=O)OC(C#N)c1cccc(Oc2ccccc2)c1 (stereo not drawn) [alpha-cypermethrin]
Average number of living adult pollen beetles per 50 inflorescenses (alpha-cypermethrin 7.5 g a.i./ha, 0 DAT (count shortly before treatment), oilseed rape field, 4 replicates): 343 | Average number of living adult pollen beetles per 50 inflorescenses (alpha-cypermethrin 7.5 g a.i./ha, 3 DAT): 119 | Average number of living adult pollen beetles per 50 inflorescenses (alpha-cypermethrin 7.5 g a.i./ha, 6 DAT): 75 | Average number of living adult pollen beetles per 50 inflorescenses (alpha-cypermethrin 12.5 g a.i./ha, 0 DAT (count shortly before treatment)): 352 | Average number of living adult pollen beetles per 50 inflorescenses (alpha-cypermethrin 12.5 g a.i./ha, 3 DAT): 116 | Average number of living adult pollen beetles per 50 inflorescenses (alpha-cypermethrin 12.5 g a.i./ha, 6 DAT): 79
